Data taken from paper PMC10233829 (ACS Omega, 2023).

O=C(O)c1cn(C2CC2)c2cc(N3CCN(C(=O)CCCCBr)CC3)c(F)cc2c1=O [Compound 11, 7-[4-(5-Bromopentanoyl)-piperazin-1-yl]-1-cyclopropyl-6-fluoro-4-oxo-1,4-dihydro-quinoline-3-carboxylic Acid]
melting point: 225.7 to 226.2 °C
